Assay results taken from patent publication US11931376B1, “Methods for the treatment of chronic kidney disease” (RENATUS INC., priority 2022, dated 2024).

Tests used:
[1] = tested on: macrophage cell line (Raw264.7); test: Cell viability assay (CCK-8); assay type: cell-based; conditions: cyclodextrin 20 mg/ml, 24 hours, 37° C.
Experimental: The cells were seeded in a 96-well plate at a density of 5×10^4 cells and 24 hours later cyclodextrin were treated at a concentration of 20 mg/ml for 24 hours at 37° C. CCK-8 agent was added, 10 μl per well. After 3 hours, absorbance at 450 nm was measured to assess cellular viability.

Murine mesangial cells = test: Cholesterol efflux in kidney mesangial cells (flow cytometry); assay type: cell-based, C57BL/6 mice; conditions: mesangial cells loaded with NBD-CC for 3 hours, cyclodextrin 5 mg/ml
Experimental: Murine mesangial cells derived from the kidney of wild-type C57BL/6 mice were maintained in DMEM, 10% fetal bovine serum (FBS), 100 U/ml penicillin G, 100 μg/ml streptomycin, and 2 mM L-glutamine. The cells were seeded at a density of 10^6 cells/well one day before treatment with NBD-CC. The cells were treated with 100 μg of NBD-CC per 10^6 cells for 3 hours and then washed thoroughly twice. Then, cyclodextrins were treated at a concentration of 5 mg/ml. For the assessment of cholesterol efflux and efflux-mediating proteins ABCA1 and ABCG1, flow cytometry was performed.

[2] = tested on: red blood cells (whole blood); test: Hemolysis assay; assay type: cell-based, C57/BL6 mice; conditions: cyclodextrin 50 mg/ml, 1 hour, 37° C., absorbance at 540 nm
Experimental: Whole blood from wilt-type C57/BL6 mice was used for assessment of hemolytic activity of cyclodextrins. The whole blood samples (300 μl) were mixed with each cyclodextrin at a concentration of 50 mg/ml and incubated for 1 hour at 37° C. After centrifugation at 3,000 g for 5 minutes, the absorbance at 540 nm of the supernatant was measured.

albuminuria = test: Albuminuria in diabetic kidney disease mouse model; assay type: in vivo, db/db mice; conditions: subcutaneous 2 g/kg twice a week for 4 weeks
Experimental: To investigate the effects of cyclodextrins on albuminuria, 8-week-old male db/db mice were used to model diabetes type II, which is susceptible to albuminuria. In the experimental setup, Oligo-GCD (4103 Da), Oligo-HPGCD (3825 Da) and HPBCD-B were subcutaneously injected at a dose of 2 g/kg twice a week for 4 weeks. Control mice were given PBS only. After the treatment is completed, 24-hour urine samples were collected and the concentration of albumin in the urine was measured (FIG. 8A).

Structure (SMILES) | cell viability [1] | cellular cholesterol content (Murine mesangial cells) [%] | hemolytic activity [2] | ACR reduction compared to control (albuminuria) [%] | albumin/creatinine ratio (ACR) (albuminuria; urine at end of week 4) [µg/mg]
CC(O)COC[C@H]1O[C@@H]2O[C@H]3[C@H](O)[C@@H](O)[C@@H](O[C@H]4[C@H](O)[C@@H](O)[C@@H](O[C@H]5[C@H](O)[C@@H](O)[C@@H](O[C@H]6[C@H](O)[C@@H](O)[C@@H](O[C@H]7[C@H](O)[C@@H](O)[C@@H](O[C@H]8[C@H](O)[C@@H](O)[C@@H](O[C@H]1[C@H](O)[C@H]2O)O[C@@H]8COCC(C)O)O[C@@H]7COCC(C)O)O[C@@H]6COCC(C)O)O[C@@H]5COCC(C)O)O[C@@H]4COCC(C)O)O[C@@H]3COCC(C)O (single isomer, unassigned) [HPBCD-A, hydroxypropyl-beta-cyclodextrin] | induce cell viability loss | 54.1 | disrupt the plasma membrane and induce hemolysis |  | 
CC(O)COC[C@H]1O[C@@H]2O[C@H]3[C@H](O)[C@@H](O)[C@@H](O[C@H]4[C@H](O)[C@@H](O)[C@@H](O[C@H]5[C@H](O)[C@@H](O)[C@@H](O[C@H]6[C@H](O)[C@@H](O)[C@@H](O[C@H]7[C@H](O)[C@@H](O)[C@@H](O[C@H]8[C@H](O)[C@@H](O)[C@@H](O[C@H]1[C@H](O)[C@H]2O)O[C@@H]8COCC(C)O)O[C@@H]7COCC(C)O)O[C@@H]6COCC(C)O)O[C@@H]5COCC(C)O)O[C@@H]4COCC(C)O)O[C@@H]3COCC(C)O (single isomer, unassigned) [HPBCD-B, hydroxypropyl-beta-cyclodextrin] | induce cell viability loss | 48.2 | disrupt the plasma membrane and induce hemolysis | 22.6 | 190.9
CC(O)COC[C@H]1O[C@@H]2O[C@H]3[C@H](O)[C@@H](O)[C@@H](O[C@H]4[C@H](O)[C@@H](O)[C@@H](O[C@H]5[C@H](O)[C@@H](O)[C@@H](O[C@H]6[C@H](O)[C@@H](O)[C@@H](O[C@H]7[C@H](O)[C@@H](O)[C@@H](O[C@H]8[C@H](O)[C@@H](O)[C@@H](O[C@H]1[C@H](O)[C@H]2O)O[C@@H]8COCC(C)O)O[C@@H]7COCC(C)O)O[C@@H]6COCC(C)O)O[C@@H]5COCC(C)O)O[C@@H]4COCC(C)O)O[C@@H]3COCC(C)O (single isomer, unassigned) [HPBCD-C, hydroxypropyl-beta-cyclodextrin] | induce cell viability loss | 50.5 | disrupt the plasma membrane and induce hemolysis |  | 
